Values after ≈ are worked out from the molar mass of the structure shown.
What was measured:
Format in all cases: functional
Klebsiella pneumoniae = assay: Antibacterial activity against Klebsiella pneumoniae after 24 hr by broth serial microdilution method
Staphylococcus aureus = assay: Antibacterial activity against Staphylococcus aureus after 24 hr by broth serial microdilution method
Salmonella typhi = assay: Antibacterial activity against Salmonella enterica subsp. enterica serovar Typhi after 24 hr by broth serial microdilution method
Aspergillus niger = assay: Antifungal activity against Aspergillus niger by broth serial microdilution method
Bacillus subtilis = assay: Antibacterial activity against Bacillus subtilis after 24 hr by broth serial microdilution method

Row | SMILES | MIC (Klebsiella pneumoniae) [µM] | MIC (Staphylococcus aureus) [µM] | MIC (Salmonella typhi) [µM] | MIC (Aspergillus niger) [µM] | MIC (Bacillus subtilis) [µM]
1 | COc1ccc2nc(NC(=S)NC(=O)CNc3nc(N)nc4c3ncn4S(=O)(=O)c3ccccc3)sc2c1 | 350 (≈ 199 µg/mL) | 350 (≈ 199 µg/mL) | 540 (≈ 308 µg/mL) | 180 (≈ 103 µg/mL) | 180 (≈ 103 µg/mL)
2 | Nc1nc(NCC(=O)NC(=S)Nc2nc3ccc([N+](=O)[O-])cc3s2)c2ncn(S(=O)(=O)c3ccccc3)c2n1 | 510 (≈ 298 µg/mL) | 510 (≈ 298 µg/mL) | 510 (≈ 298 µg/mL) | 510 (≈ 298 µg/mL) | 510 (≈ 298 µg/mL)
3 | Nc1nc(NCC(=O)NC(=S)Nc2nc3ccc(F)cc3s2)c2ncn(S(=O)(=O)c3ccccc3)c2n1 | 180 (≈ 100 µg/mL) | 530 (≈ 296 µg/mL) | 360 (≈ 201 µg/mL) | 360 (≈ 201 µg/mL) | 360 (≈ 201 µg/mL)
4 | Nc1nc(NCC(=O)NC(=S)Nc2nc3c([N+](=O)[O-])cccc3s2)c2ncn(S(=O)(=O)c3ccccc3)c2n1 | 510 (≈ 298 µg/mL) | 510 (≈ 298 µg/mL) | 510 (≈ 298 µg/mL) | 510 (≈ 298 µg/mL) | 510 (≈ 298 µg/mL)
5 | Nc1nc(NCC(=O)NC(=S)Nc2nc3ccccc3s2)c2ncn(S(=O)(=O)c3ccccc3)c2n1 | 550 (≈ 297 µg/mL) | 560 (≈ 302 µg/mL) | 560 (≈ 302 µg/mL) | 550 (≈ 297 µg/mL) | 1290 (≈ 696 µg/mL)
6 | O=C(O)c1cn(C2CC2)c2cc(N3CCNCC3)c(F)cc2c1=O [CIPROFLOXACIN] | 120 (≈ 39.8 µg/mL) | 190 (≈ 63 µg/mL) | 190 (≈ 63 µg/mL) | – | 250 (≈ 82.8 µg/mL)
7 | Nc1nc(NCC(=O)NC(=S)Nc2nc3cc([N+](=O)[O-])ccc3s2)c2ncn(S(=O)(=O)c3ccccc3)c2n1 | 510 (≈ 298 µg/mL) | 510 (≈ 298 µg/mL) | 510 (≈ 298 µg/mL) | 510 (≈ 298 µg/mL) | 510 (≈ 298 µg/mL)
8 | Nc1nc(NCC(=O)NC(=S)Nc2nc3c(Cl)cccc3s2)c2ncn(S(=O)(=O)c3ccccc3)c2n1 | 170 (≈ 97.6 µg/mL) | 350 (≈ 201 µg/mL) | 350 (≈ 201 µg/mL) | 350 (≈ 201 µg/mL) | 350 (≈ 201 µg/mL)
9 | CC1(C)S[C@@H]2[C@H](NC(=O)[C@H](N)c3ccccc3)C(=O)N2[C@H]1C(=O)O [AMPICILLIN] | 130 (≈ 45.4 µg/mL) | 130 (≈ 45.4 µg/mL) | 200 (≈ 69.9 µg/mL) | – | 270 (≈ 94.3 µg/mL)
10 | Cc1ccc2nc(NC(=S)NC(=O)CNc3nc(N)nc4c3ncn4S(=O)(=O)c3ccccc3)sc2c1 | 540 (≈ 299 µg/mL) | 540 (≈ 299 µg/mL) | 530 (≈ 293 µg/mL) | 540 (≈ 299 µg/mL) | 540 (≈ 299 µg/mL)
11 | Nc1nc(NCC(=O)NC(=S)Nc2nc3ccc(Cl)cc3s2)c2ncn(S(=O)(=O)c3ccccc3)c2n1 | 350 (≈ 201 µg/mL) | 520 (≈ 299 µg/mL) | 530 (≈ 304 µg/mL) | 350 (≈ 201 µg/mL) | 350 (≈ 201 µg/mL)
12 | OC(Cn1cncn1)(Cn1cncn1)c1ccc(F)cc1F [FLUCONAZOLE] | – | – | – | 350 (≈ 107 µg/mL) | –
13 | COc1ccc2sc(NC(=S)NC(=O)CNc3nc(N)nc4c3ncn4S(=O)(=O)c3ccccc3)nc2c1 | 530 (≈ 302 µg/mL) | 530 (≈ 302 µg/mL) | 350 (≈ 199 µg/mL) | 350 (≈ 199 µg/mL) | 350 (≈ 199 µg/mL)

Source: ChEMBL document CHEMBL3045200, “Design, synthesis of some 2,6,9-trisubstituted purinyl thioureido derivatives and evaluation of antimicrobial activity” (2012)
